Results published in US20220389049A1, “REVERSIBLE TERMINATORS FOR DNA SEQUENCING AND METHODS OF USING THE SAME” (Centrillion Technologies, Inc., priority 2019, published 2022).

Key:
DNA polymerase ("CENT1") = experiment: Enzymatic incorporation and cleavage studies: primer extension with compound 5 into a growing DNA chain (FIG. 2); assay type: biochemical
Description: Enzymatic Incorporation and Cleavage Studies: (2R,3S,5R)-2-(((hydroxy((hydroxy(phosphonooxy)phosphoryl)oxy)phosphoryl)oxy)methyl)-5-(5-methyl-2,4-dioxo-3,4-dihydropyrimidin-1(2H)-yl)tetrahydrofuran-3-yl 3-azidopropanoate (5), a model compound, was synthesized similar to conditions of the relevant reactions disclosed in Scheme 1.

[1] = Chemical cleavage of the 3′O-blocking group of the free triphosphate by reducing reagent; assay type: physicochemical; conditions: heating with THPP or TCEP in 1×TE buffer at 55° C. for 5 min
Experimental: Cleavage of 3′O-[dithio-1-butynyl)-methyl)-thymidine triphosphate (15): The 3′O-bolcking group, alkyne dithioalkynemethyl ether from triphosphate 15 was cleaved by heating with 1, 4-dithiothreitol or (DTT) or tris(2-carboxyethyl) phosphine (TCEP) in 1×TE buffer (pH 9.5) at 55 degree Celsius for 5 min to afford thymidine triphosphate as shown in the Scheme 5.

growing DNA chain = experiment: Enzymatic incorporation: primer extension with compound 15 into a growing DNA chain (FIG. 3); assay type: biochemical; conditions: FIG. 3 lanes 3, 4, 6 and 7

blockage of further extension after incorporation of the terminator (DNA polymerase ("CENT1"); "runaway" reaction in the presence of all four unmodified dNTPs and a polymerase, FIG. 2 lane 4)	further extension by the next base added after the cleavage (DNA polymerase ("CENT1"); FIG. 2 lane 6)	enzymatic incorporation (DNA polymerase ("CENT1"); in the presence of DNA polymerase ("CENT1"), FIG. 2 lane 3)	cleavage of the 3′O-azidoalkanoate [1]	SMILES	cleavage of the label and the blocking group after incorporation (DNA polymerase ("CENT1"); FIG. 2 lane 5)	enzymatic incorporation (growing DNA chain)
blockage of further extension	further extension by the next base added	can be used in enzymatic incorporation	neatly cleaved	Cc1cn([C@H]2C[C@@H](OC(=O)CCN=[N+]=[N-])[C@@H](COP(=O)(O)OP(=O)(O)OP(=O)(O)O)O2)c(=O)[nH]c1=O [compound 5, 3′O-(3-azidopropionyl)-thymidine triphosphate]	cleavage of the label and the blocking group	–
–	–	–	–	C#CCCCSSCO[C@@H]1C[C@H](n2cc(C)c(=O)[nH]c2=O)O[C@@H]1COP(=O)(O)OP(=O)(O)OP(=O)(O)O [compound 15]	–	excellent enzymatic incorporation
